Consider 19 compounds from patent US12624044B2, “SMARCA degraders and uses thereof” (Kymera Therapeutics, Inc., priority 2019, dated 2026).

As usually defined, the Dmax is the largest share of the target that was removed. By DC50 is commonly meant the concentration giving 50% degradation.

Molecules are shown by their SMILES.

One assay has as its target T1, SMARCA4 (Homo sapiens, UniProt P51532).
T1 construct: SMARCA2 and SMARCA4 protein degradation in MV4-11 cells; endogenous in cells; host or cells: MV4-11
As to the kind of experiment: SMARCA4 Western blot MV4-11 degradation. In kind it is cell-based. To be noted: 24 h; for Dmax: MV4-11, MV4-11 cells, read-out: SMARCA4 WB MV411 degradation 24 h: Average Dmax %; for DC50: MV4-11 cells, read-out: SMARCA4 WB MV411 degradation 24 h: Average external-Abs DC50. Put shortly:
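MV4-11 cells treated with compound for 24 h, lysed in RIPA with protease/phosphatase inhibitors, and SMARCA2 and SMARCA4 (BRG1) levels assessed by Western blot with β-actin loading control and LI-COR fluorescent read-out. Maximal degradation (Dmax %) after 24 h binned into letter codes.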
Background: Immunoblotting shows a protein as a band on a membrane.

The next assay has as its target SMARCA2 (Homo sapiens, UniProt P51531). As to the kind of experiment: MSD SMARCA2 degradation in A549 cell line. The format is cell-based. The note with it: 24 h; for Dmax: A549, A549 cells; for DC50: A549 cells, read-out: SMARCA2 MSD A549 degradation 24 h: Average external-Abs DC50. The essentials:
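A549 cells treated 24 h with compound at final 0.152-1000 nM (3-fold series, DMSO control). Lysates analyzed by MSD immunoassay using anti-SMARCA2/BRM detection and SULFO-TAG secondary antibodies; maximal degradation (Dmax %) reported as letter bins.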

Sequence of SMARCA2 (P51531 whole entry): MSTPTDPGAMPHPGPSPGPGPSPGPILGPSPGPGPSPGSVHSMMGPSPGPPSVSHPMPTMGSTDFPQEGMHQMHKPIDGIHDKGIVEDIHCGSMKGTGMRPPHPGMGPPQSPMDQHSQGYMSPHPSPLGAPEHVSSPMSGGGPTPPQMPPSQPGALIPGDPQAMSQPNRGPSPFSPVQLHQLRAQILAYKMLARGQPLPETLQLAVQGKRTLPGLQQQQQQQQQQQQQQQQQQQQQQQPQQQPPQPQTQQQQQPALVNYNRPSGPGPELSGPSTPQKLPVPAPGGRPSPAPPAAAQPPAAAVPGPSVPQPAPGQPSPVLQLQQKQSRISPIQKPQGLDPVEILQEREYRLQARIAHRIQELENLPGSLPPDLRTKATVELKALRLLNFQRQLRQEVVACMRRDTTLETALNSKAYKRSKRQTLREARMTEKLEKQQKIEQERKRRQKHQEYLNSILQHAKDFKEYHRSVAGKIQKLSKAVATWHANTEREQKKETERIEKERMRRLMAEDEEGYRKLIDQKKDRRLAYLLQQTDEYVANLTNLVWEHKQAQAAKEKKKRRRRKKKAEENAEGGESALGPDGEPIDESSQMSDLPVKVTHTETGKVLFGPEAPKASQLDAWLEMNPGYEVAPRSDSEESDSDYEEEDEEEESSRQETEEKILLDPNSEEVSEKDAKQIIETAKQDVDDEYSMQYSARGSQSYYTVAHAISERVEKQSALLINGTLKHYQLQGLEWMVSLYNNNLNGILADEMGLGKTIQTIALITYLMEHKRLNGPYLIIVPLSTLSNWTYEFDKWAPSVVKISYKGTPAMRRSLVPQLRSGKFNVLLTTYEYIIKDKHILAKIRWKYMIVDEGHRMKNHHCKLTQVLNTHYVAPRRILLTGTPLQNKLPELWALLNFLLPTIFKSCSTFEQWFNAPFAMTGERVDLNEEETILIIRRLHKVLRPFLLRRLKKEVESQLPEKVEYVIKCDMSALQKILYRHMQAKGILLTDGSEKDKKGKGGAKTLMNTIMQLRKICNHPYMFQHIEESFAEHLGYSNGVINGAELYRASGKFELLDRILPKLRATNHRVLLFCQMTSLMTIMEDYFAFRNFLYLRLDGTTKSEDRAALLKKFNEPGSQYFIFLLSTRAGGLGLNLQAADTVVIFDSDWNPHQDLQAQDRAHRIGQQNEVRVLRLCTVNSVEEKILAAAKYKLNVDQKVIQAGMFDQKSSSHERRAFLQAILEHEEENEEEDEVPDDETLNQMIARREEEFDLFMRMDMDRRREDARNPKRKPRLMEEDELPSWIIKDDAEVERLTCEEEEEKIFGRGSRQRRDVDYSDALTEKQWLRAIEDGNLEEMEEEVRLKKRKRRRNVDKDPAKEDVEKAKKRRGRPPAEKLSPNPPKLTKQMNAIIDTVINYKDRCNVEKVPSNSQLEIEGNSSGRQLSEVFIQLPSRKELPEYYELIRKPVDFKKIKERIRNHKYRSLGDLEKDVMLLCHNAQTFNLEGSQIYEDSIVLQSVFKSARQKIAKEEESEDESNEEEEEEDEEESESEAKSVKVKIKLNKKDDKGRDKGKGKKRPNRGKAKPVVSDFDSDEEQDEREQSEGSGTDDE
T1 sequence (P51532 whole entry): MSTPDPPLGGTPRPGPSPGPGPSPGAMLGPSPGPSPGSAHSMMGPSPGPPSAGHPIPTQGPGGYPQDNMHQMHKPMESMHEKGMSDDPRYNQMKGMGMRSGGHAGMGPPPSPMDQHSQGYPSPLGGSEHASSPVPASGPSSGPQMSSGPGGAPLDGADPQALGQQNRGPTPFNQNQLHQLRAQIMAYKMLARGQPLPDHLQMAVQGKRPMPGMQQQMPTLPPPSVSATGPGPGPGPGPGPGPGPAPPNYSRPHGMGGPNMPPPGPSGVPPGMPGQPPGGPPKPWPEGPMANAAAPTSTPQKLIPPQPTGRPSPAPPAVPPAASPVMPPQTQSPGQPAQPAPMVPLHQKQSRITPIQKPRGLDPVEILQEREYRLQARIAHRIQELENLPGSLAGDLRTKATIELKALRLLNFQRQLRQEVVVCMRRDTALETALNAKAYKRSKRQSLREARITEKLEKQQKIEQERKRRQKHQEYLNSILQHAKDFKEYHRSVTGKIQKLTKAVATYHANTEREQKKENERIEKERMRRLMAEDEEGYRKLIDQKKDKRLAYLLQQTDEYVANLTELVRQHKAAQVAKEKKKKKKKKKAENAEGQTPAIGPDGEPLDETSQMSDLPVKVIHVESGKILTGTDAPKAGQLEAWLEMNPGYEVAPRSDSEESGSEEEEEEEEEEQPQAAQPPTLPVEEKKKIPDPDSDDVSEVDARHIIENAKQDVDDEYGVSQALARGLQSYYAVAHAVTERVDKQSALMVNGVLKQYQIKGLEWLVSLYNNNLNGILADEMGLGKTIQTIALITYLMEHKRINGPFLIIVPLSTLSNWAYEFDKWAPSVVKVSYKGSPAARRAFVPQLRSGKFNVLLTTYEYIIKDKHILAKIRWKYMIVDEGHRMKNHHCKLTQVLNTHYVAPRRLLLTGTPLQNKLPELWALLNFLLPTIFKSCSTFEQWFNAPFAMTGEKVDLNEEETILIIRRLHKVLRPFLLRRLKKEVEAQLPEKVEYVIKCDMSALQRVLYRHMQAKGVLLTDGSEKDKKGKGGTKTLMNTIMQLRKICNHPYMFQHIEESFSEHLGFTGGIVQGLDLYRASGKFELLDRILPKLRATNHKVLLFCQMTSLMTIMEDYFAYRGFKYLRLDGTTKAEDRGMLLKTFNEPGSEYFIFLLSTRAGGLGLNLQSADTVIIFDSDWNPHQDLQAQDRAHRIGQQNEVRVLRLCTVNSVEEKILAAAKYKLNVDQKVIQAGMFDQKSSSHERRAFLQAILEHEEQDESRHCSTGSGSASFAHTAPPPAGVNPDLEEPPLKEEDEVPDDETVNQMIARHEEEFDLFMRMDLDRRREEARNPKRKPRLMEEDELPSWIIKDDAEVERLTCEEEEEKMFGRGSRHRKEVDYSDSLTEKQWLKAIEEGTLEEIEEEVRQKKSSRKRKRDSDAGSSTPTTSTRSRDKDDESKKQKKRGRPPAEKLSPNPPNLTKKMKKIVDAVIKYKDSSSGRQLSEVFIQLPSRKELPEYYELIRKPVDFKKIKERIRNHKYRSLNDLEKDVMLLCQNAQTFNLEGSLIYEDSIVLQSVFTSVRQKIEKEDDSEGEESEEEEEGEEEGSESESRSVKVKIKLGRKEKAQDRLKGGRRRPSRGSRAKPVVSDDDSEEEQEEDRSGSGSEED

`CC(C)(C)[C@H](NC(=O)C1(F)CC1)C(=O)N1C[C@H](O)C[C@H]1C(=O)NCc1ccc(-c2scnc2-c2ccc3cn[nH]c3c2)cc1OCCc1ccc(CN2CCN(c3cc(-c4ccccc4O)nnc3N)CC2)cc1` [I-447, (2S,4R)—N-(4-(4-(1H-indazol-6-yl)thiazol-5-yl)-2-(4-((4-(3-amino-6-(2-hydroxyphenyl)pyridazin-4-yl)piperazin-1-yl)methyl)phenethoxy)benzyl)-1-((S)-2-(1-fluorocyclopropanecarboxamido)-3,3-dimethylbutanoyl)-4-hydroxypyrrolidine-2-carboxamide]: on SMARCA4, the Dmax is above 90% and the DC50 was below 100 nM. At SMARCA2, the Dmax is above 90% and the DC50 was 100 to 500 nM.
As to `Cc1ncsc1-c1ccc(CNC(=O)[C@@H]2C[C@@H](O)CN2C(=O)[C@@H](NC(=O)CCCN2CCCC(n3cc(-c4cc(-c5ccccc5O)nnc4N)cn3)C2)C(C)(C)C)cc1` (stereo partly drawn) [I-454], at SMARCA4, the Dmax is below 50% and the DC50 was above 1000 nM. Further, at SMARCA2, the Dmax is below 50% and the DC50 is above 1000 nM.
As to `Cc1ncsc1-c1ccc(CNC(=O)[C@@H]2C[C@@H](O)CN2C(=O)[C@@H](NC(=O)CCN2CCN(Cc3ccc(-c4cc(-c5ccccc5O)nnc4N)cc3)CC2)C(C)(C)C)cc1` [I-474], the Dmax on SMARCA4 lay in the range of 70 to 90%. Further, at SMARCA2, the greatest degradation seen (Dmax) was below 50% and the DC50 was above 1000 nM.
As to `Cc1ncsc1-c1ccc(CNC(=O)[C@@H]2C[C@@H](O)CN2C(=O)[C@@H](NC(=O)CCN2CCC[C@H](Cn3cc(-c4cc(-c5ccccc5O)nnc4N)cn3)C2)C(C)(C)C)cc1` [I-478], the Dmax at SMARCA4 and at SMARCA2 was below 50% in each case. The 50% degradation concentration (DC50) on SMARCA4 and at SMARCA2 was above 1000 nM throughout.
With `Cc1ncsc1-c1ccc(CNC(=O)[C@@H]2C[C@@H](O)CN2C(=O)[C@@H](NC(=O)CCCCN2CCC[C@H](Cn3cc(-c4cc(-c5ccccc5O)nnc4N)cn3)C2)C(C)(C)C)cc1` [I-480], at SMARCA4, the Dmax is below 50% and the DC50 was above 1000 nM. For the same compound, at SMARCA2, the Dmax is below 50% and the DC50 is above 1000 nM.
Consider `Cc1ncsc1-c1ccc(CNC(=O)[C@@H]2C[C@@H](O)CN2C(=O)[C@@H](NC(=O)[C@H](C)N2CCC(c3cnc(N4C5CCC4CN(c4cc(-c6ccccc6O)nnc4N)C5)nc3)CC2)C(C)(C)C)cc1` [I-481], for which the greatest degradation seen (Dmax) at SMARCA4 is above 90%; at SMARCA2, below 50%. Moreover, the DC50 on SMARCA4 and at SMARCA2 was above 1000 nM in each case.
Take `Cc1ncsc1-c1ccc(CNC(=O)[C@@H]2C[C@@H](O)CN2C(=O)[C@@H](NC(=O)[C@@H](C)N2CCC(c3cnc(N4C5CCC4CN(c4cc(-c6ccccc6O)nnc4N)C5)nc3)CC2)C(C)(C)C)cc1` [I-482]: on SMARCA4, the Dmax was above 90% and the DC50 was above 1000 nM. For the same compound, at SMARCA2, the Dmax was 70 to 90% and the DC50 fell in the range of 501 to 1000 nM.
The corresponding values for `Cc1ncsc1-c1ccc(CNC(=O)[C@@H]2C[C@@H](O)CN2C(=O)[C@@H](NC(=O)C2CCC(N3CCC(n4cc(-c5cc(-c6ccccc6O)nnc5N)cn4)CC3)CC2)C(C)(C)C)cc1` (stereo partly drawn) [I-483] are below 50%, above 1000 nM, 70 to 90% and 100 to 500 nM.
Regarding `Cc1ncsc1-c1ccc(CNC(=O)[C@@H]2C[C@@H](N)CN2C(=O)[C@@H](NC(=O)CCCNCc2ccc(C#Cc3cc(NC(=O)Nc4cc(F)ncc4CO)ccn3)cc2)C(C)(C)C)cc1` [I-492], at SMARCA4, the Dmax was below 50% and the DC50 was above 1000 nM. For the same compound, on SMARCA2, the Dmax is below 50% and the DC50 was above 1000 nM.
Take `Cc1ncsc1-c1ccc(CNC(=O)[C@@H]2C[C@@H](O)CN2C(=O)[C@@H](NC(=O)CCN(C)CC#Cc2cnc(N3C4CCC3CN(c3cc(-c5ccccc5O)nnc3N)C4)nc2)C(C)(C)C)cc1` [I-496]: at SMARCA4, the Dmax was above 90% and the DC50 was below 100 nM. Also, at SMARCA2, the Dmax fell in the range of 70 to 90% and the DC50 is 501 to 1000 nM.
On the same counts, the results for `Cc1ncsc1-c1ccc(CNC(=O)[C@@H]2C[C@@H](O)CN2C(=O)[C@@H](NC(=O)CC2CCC(c3cnc(N4C5CCC4CN(c4cc(-c6ccccc6O)nnc4N)C5)nc3)CC2)C(C)(C)C)cc1` (stereo partly drawn) [I-502] are above 90%, below 100 nM, above 90% and below 100 nM.
The corresponding values for `Cc1ncsc1-c1ccc(CNC(=O)[C@@H]2C[C@@H](O)CN2C(=O)[C@@H](NC(=O)C2CCC(CCCCCN3CCC(Cn4cc(-c5cc(-c6ccccc6O)nnc5N)cn4)CC3)CC2)C(C)(C)C)cc1` (stereo partly drawn) [I-504] are above 90%, 100 to 500 nM, above 90% and 100 to 500 nM.
As to `Cc1ncsc1-c1ccc(CNC(=O)[C@@H]2C[C@@H](O)CN2C(=O)[C@@H](NC(=O)c2ccc(CCCCCN3CCC(Cn4cc(-c5cc(-c6ccccc6O)nnc5N)cn4)CC3)cc2)C(C)(C)C)cc1` [I-505], on SMARCA4, the Dmax was above 90% and the DC50 lay in the range of 100 to 500 nM. In addition, on SMARCA2, the Dmax was above 90% and the DC50 was 100 to 500 nM.
For the compound `Cc1ncsc1-c1ccc(CNC(=O)[C@@H]2C[C@@H](O)CN2C(=O)[C@@H](NC(=O)c2ccc(C#CCCCN3CCC(Cn4cc(-c5cc(-c6ccccc6O)nnc5N)cn4)CC3)cc2)C(C)(C)C)cc1` [I-506], on SMARCA4, the Dmax was above 90% and the DC50 was below 100 nM. At SMARCA2, the Dmax was above 90% and the DC50 was in the range of 100 to 500 nM.
In the case of `Cc1ncsc1-c1ccc(CNC(=O)[C@@H]2C[C@@H](O)CN2C(=O)[C@@H](NC(=O)c2ccc(-c3ccc(CN4CCC(Cn5cc(-c6cc(-c7ccccc7O)nnc6N)cn5)CC4)cc3)cc2)C(C)(C)C)cc1` [I-507], at SMARCA4, the Dmax is above 90% and the DC50 was below 100 nM. Further, on SMARCA2, the Dmax is above 90% and the DC50 was below 100 nM.
Regarding `Cc1ncsc1-c1ccc(CNC(=O)[C@@H]2C[C@@H](O)CN2C(=O)[C@@H](NC(=O)Cc2ccc(-c3ccc(N4CCC(Cn5cc(-c6cc(-c7ccccc7O)nnc6N)cn5)CC4)cc3)cc2)C(C)(C)C)cc1` [I-508], at SMARCA4, the Dmax is below 50% and the DC50 is above 1000 nM. At SMARCA2, the Dmax was below 50% and the DC50 is above 1000 nM.
For `Cc1ncsc1-c1ccc(CNC(=O)[C@@H]2C[C@@H](O)CN2C(=O)[C@@H](NC(=O)CC2CCC(N3CCC(c4cnc(N5C6CCC5CN(c5cc(-c7ccccc7O)nnc5N)C6)nc4)CC3)CC2)C(C)(C)C)cc1` (stereo partly drawn) [I-511], on SMARCA4, the Dmax is above 90% and the DC50 was below 100 nM. Also, on SMARCA2, the Dmax was above 90% and the DC50 was 100 to 500 nM.
As for `Cc1ncsc1-c1ccc(CNC(=O)[C@@H]2C[C@@H](O)CN2C(=O)[C@@H](NC(=O)CC2CC(N3CCC(c4cnc(N5C6CCC5CN(c5cc(-c7ccccc7O)nnc5N)C6)nc4)CC3)C2)C(C)(C)C)cc1` (stereo partly drawn) [I-512], on SMARCA4, the Dmax is below 50% and the 50% degradation concentration (DC50) was above 1000 nM. Also, at SMARCA2, the Dmax fell in the range of 70 to 90% and the DC50 is 100 to 500 nM.
`Cc1ncsc1-c1ccc(CNC(=O)[C@@H]2C[C@@H](O)CN2C(=O)[C@@H](NC(=O)Cc2ccc(N3CCC(c4cnc(N5C6CCC5CN(c5cc(-c7ccccc7O)nnc5N)C6)nc4)CC3)cc2)C(C)(C)C)cc1` [I-513]: at SMARCA4, the Dmax lay in the range of 70 to 90% and the DC50 lay in the range of 100 to 500 nM. Besides, on SMARCA2, the Dmax is 70 to 90% and the DC50 lay within 501 to 1000 nM.
